Measured values: ChEMBL document CHEMBL1142043, “Potent and selective [2-imidazol-1-yl-2-(6-alkoxy-naphthalen-2-yl)-1-methyl-ethyl]-dimethyl-amines as retinoic acid metabolic blocking agents (RAMBAs)” (Bioorg Med Chem Lett, 2005)

Experiments:
Cytochrome P450 26A1 = molecular target: T1, Cytochrome P450 26A1 (Homo sapiens, UniProt O43174); test: Potency towards cytochrome P 450 26 enzyme activity
T1 sequence (O43174 whole entry): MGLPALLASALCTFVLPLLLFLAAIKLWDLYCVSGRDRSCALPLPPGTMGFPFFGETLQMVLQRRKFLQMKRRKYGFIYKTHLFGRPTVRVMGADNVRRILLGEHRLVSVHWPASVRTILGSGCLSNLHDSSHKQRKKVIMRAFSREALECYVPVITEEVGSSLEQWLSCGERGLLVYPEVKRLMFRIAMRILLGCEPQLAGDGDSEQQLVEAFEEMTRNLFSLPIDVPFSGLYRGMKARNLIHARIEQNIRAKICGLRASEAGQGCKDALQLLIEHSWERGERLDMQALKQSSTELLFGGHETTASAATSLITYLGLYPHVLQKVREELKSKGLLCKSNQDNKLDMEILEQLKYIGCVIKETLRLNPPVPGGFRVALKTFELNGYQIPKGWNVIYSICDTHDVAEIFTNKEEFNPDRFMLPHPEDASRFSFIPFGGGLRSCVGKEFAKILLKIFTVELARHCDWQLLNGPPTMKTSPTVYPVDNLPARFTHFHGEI

[1] = Potency towards AT 6.1 cell; format: functional, Rattus norvegicus
T47D [2] = test: Potency towards T47D cell; format: functional, cell-based, Rattus norvegicus; conditions: Homo sapiens
[3] = Potency towards AT 6.1 cell; Inactive at 250 nM; format: functional, Rattus norvegicus
T47D [4] = test: Potency towards T47D cell; Inactive at 1 uM; format: functional
Rattus norvegicus = test: Potency (30 mg/kg, bid) was determined towards AT 6.1 cell; format: organism-based

Compound | IC50 (Cytochrome P450 26A1) [nM] | also measured
COC(=O)c1ccc(COc2ccc3cc(C(C(C)N(C)C)n4ccnc4)ccc3c2)cc1 (stereo in doubt; syn) | 16 | –
CC(C(c1ccc2cc(OCc3ccc(OCC(=O)O)cc3)ccc2c1)n1ccnc1)N(C)C (stereo unspecified) | 8 | –
CC(C(c1ccc2cc(OCc3ccc(C(=O)O)cc3)ccc2c1)n1ccnc1)N(C)C (stereo in doubt; syn) | 3.3 | IC50 [1]: < 100 nM; IC50 (T47D [2]): < 100 nM
CC(C(c1ccc2cc(OCc3cccc(C(N)=O)c3)ccc2c1)n1ccnc1)N(C)C (stereo unspecified) | – | IC50 [3]: Inactive at 1 uM; IC50 (T47D [4]): Inactive at 1 uM
CC(C(c1ccc2cc(OCc3ccc(C(=O)O)cc3)ccc2c1)n1ccnc1)N(C)C (stereo in doubt; anti) | 12 | –
CC(C(c1ccc2cc(OCc3cccc(C(=O)O)c3)ccc2c1)n1ccnc1)N(C)C (stereo in doubt; syn) | 3.5 | –
CC(C(c1ccc2cc(OCC(=O)O)ccc2c1)n1ccnc1)N(C)C (stereo unspecified) | 335 | –
CC(C(c1ccc2cc(OCc3ccc(OC(C)(C)C)cc3)ccc2c1)n1ccnc1)N(C)C (stereo in doubt; anti) | 86 | –
Clc1cccc(C(c2ccc3[nH]cnc3c2)n2ccnc2)c1 (stereo unspecified) | – | inhibition (Rattus norvegicus): 90%
CC(C(c1ccc2cc(OCC(C)(C)C(=O)N(C)C)ccc2c1)n1ccnc1)N(C)C (stereo unspecified) | – | IC50 [1]: 250 nM
COC(=O)c1cccc(COc2ccc3cc(C(C(C)N(C)C)n4ccnc4)ccc3c2)c1 (stereo in doubt; syn) | 7 | –
COC(=O)COc1ccc(COc2ccc3cc(C(C(C)N(C)C)n4ccnc4)ccc3c2)cc1 (stereo in doubt; anti) | 153 | –
CNC(=O)c1cccc(COc2ccc3cc(C(C(C)N(C)C)n4ccnc4)ccc3c2)c1 (stereo unspecified) | 37 | IC50 [1]: 250 nM; IC50 (T47D [4]): Inactive at 1 uM
CC(C(c1ccc2cc(OCc3ccc(C#N)cc3)ccc2c1)n1ccnc1)N(C)C (stereo in doubt; anti) | 71 | –
CC(C(c1ccc2cc(OCc3ccc(OC(C)(C)C)cc3)ccc2c1)n1ccnc1)N(C)C (stereo in doubt; syn) | 34 | –
COC(=O)COc1ccc(COc2ccc3cc(C(C(C)N(C)C)n4ccnc4)ccc3c2)cc1 (stereo in doubt; syn) | 19 | –
COC(=O)c1ccc(COc2ccc3cc(C(C(C)N(C)C)n4ccnc4)ccc3c2)cc1 (stereo in doubt; anti) | 85 | –
CNC(=O)C(C)(C)COc1ccc2cc(C(C(C)N(C)C)n3ccnc3)ccc2c1 (stereo unspecified) | 54 | IC50 [3]: Inactive at 1 uM; IC50 (T47D [4]): Inactive at 1 uM
CC(C(c1ccc2cc(OCc3cccc(C(=O)N(C)C)c3)ccc2c1)n1ccnc1)N(C)C (stereo unspecified) | 14.4 | IC50 (T47D [4]): Inactive at 1 uM
CC(C(c1ccc2cc(OCC(C)(C)C(=O)O)ccc2c1)n1ccnc1)N(C)C (stereo unspecified) | – | IC50 [1]: 300 nM; IC50 (T47D [2]): 125 nM
CC(C(c1ccc2cc(OCC(C)(C)C(N)=O)ccc2c1)n1ccnc1)N(C)C (stereo unspecified) | 47 | IC50 [3]: Inactive at 250 nM; IC50 (T47D [2]): 250 nM
CC(C(c1ccc2cc(OCc3cccc(C(=O)O)c3)ccc2c1)n1ccnc1)N(C)C (stereo in doubt; anti) | 6.3 | –
CC(C(c1ccc2cc(OCc3ccc(C#N)cc3)ccc2c1)n1ccnc1)N(C)C (stereo in doubt; syn) | 6 | –
CC(C(c1ccc2cc(OCc3ccc(CC(=O)O)cc3)ccc2c1)n1ccnc1)N(C)C (stereo unspecified) | 25 | –
COC(=O)c1cccc(COc2ccc3cc(C(C(C)N(C)C)n4ccnc4)ccc3c2)c1 (stereo in doubt; anti) | 18 | –
